Like-named read-outs stand apart in the source and are kept apart here.
Tested on: absorption of sodium from the intestinal lumen
Assay: Inhibition of intestinal sodium absorption in mice
Format: in vivo
Conditions: CD-1 mice, 15 mg/kg oral gavage twice daily; for Fecal fluid content (Δ from vehicle): day 3, change from vehicle group mean; for response vs control in vivo at 15 mg/kg: Mus musculus, 72 h
Description: Urinary and fecal sodium excretions were measured to assess the ability of selected example compounds to inhibit the absorption of sodium from the intestinal lumen. In addition, an assessment of the absence or presence of diarrhea in response to compound treatment was made. Approximately eight-week old, male, CD-1 mice were purchased from Envigo (Livermore, Calif.), were housed 6 per cage and acclimated for at least 48 hours before study initiation. Animals were fed Harlan Teklad Global TD.160470 rodent chow (Madison, Wis.), standard laboratory rodent chow Harlan Teklad Global 2018 with the addition of 0.4% inorganic phosphorous. […] To initiate the study, mice were weighed and then individually placed in metabolic cages. Following a 3-day acclimation period to the metabolic cage, a 24-hr baseline collection of urine and feces was performed. […] Each day, measurements of body weight. 24-hour food intake, water intake, urine volume and wet fecal weight were recorded, along with any observation of diarrhea. Fecal samples were dried using a lyophilizer for at least 3 days, following which dry weight was recorded and fecal fluid content was calculated based on the difference between the wet and dry stool weights. Fecal fluid content on day 3 of compound treatment was calculated as a change from the vehicle group mean. For urine samples, the volumes were determined gravimetrically. Feces and urine were analyzed for sodium content by microwave plasma-atomic emission spectroscopy or ion chromatography, respectively. Urine samples were analyzed on an ion chromatography system (Thermo Fisher ICS-3000 or ICS-5000+) coupled with conductivity detectors. Chromatographic separation of cations was performed using an IonPac CS12A (Thermo Fisher) 2×250 mm analytical column with an isocratic elution using […] methanesulfonic acid. Concentrations were interpolated from a a standard curve (prepared in 10 mM HCl) for sodium ion based on retention time and peak area. Fecal sample analysis by Microwave Plasma Atomic Emission Spectrometry (MP-AES). Dry fecal samples were ground into a fine powder on a homogenizer and the ground samples (400-600 mg aliquots weighed) were digested with nitric acid by microwave method (Mars 6). These digested samples were diluted with 1% Nitric acid and analyzed on Agilent 4100 MP-AES. Concentrations were calculated relative to a standard curve (prepared in 1% Nitric acid) for sodium based on the signal intensity. Sodium was detected at a wavelength of 588.995 nm. Twenty-four-hour urinary sodium excretion (ma/24-hours) was calculated by multiplying urinary sodium concentration by 24-hour urine volume. Twenty-four-hour fecal sodium excretion (mg/24-hours) was calculated by multiplying fecal sodium concentration by 24-hour dry fecal weight. The urinary and fecal sodium excretion on day 3 of compound treatment were normalized to dietary sodium intake and expressed as a percentage of the vehicle mean.

[1] = day 3, normalized to dietary sodium intake
[2] = day 3, normalized to dietary sodium intake, read-out: Fecal Na Excretion (% of vehicle)
[3] = day 3, normalized to dietary sodium intake, read-out: Urinary Na Excretion (% of vehicle)

| Compound | Fecal fluid content (Δ from vehicle) | Fecal Na Excretion (% of vehicle) [1] | Urinary Na Excretion (% of vehicle) [1] | response vs control in vivo at 15 mg/kg [2] [%] | response vs control in vivo at 15 mg/kg [3] [%] |
| --- | --- | --- | --- | --- | --- |
| 3-[2-(2-[2-[(4-[[(1S,2S)-4,6-Dichloro-2-[(3R)-3-[methyl(propan-2-yl)amino]piperidin-1-yl]-2,3-dihydro-1H-inden-1-yl]oxy]benzene) sulfonamido]ethoxy]ethoxy)ethyl]-1-[4-([[2-(2-[2-[(4-[[(1S,2S)-4,6-dichloro-2-[(3R)-3-[methyl(propan-2-yl)amino]piperidin-1-yl]-2,3-dihydro-1H-inden-1-yl]oxy]benzene)sulfonamido]ethoxy]ethoxy)ethyl]carbamoyl]amino)butyl]urea; bis(trifluoroacetic acid) [Example 78] | A (<5) | A (<150%) | A (>70%) | – | – |
| CN(C)[C@H]1Cc2c(Cl)cc(Cl)cc2[C@@H]1Oc1ccc(S(=O)(=O)NCCOCCOCCNC(=O)NCCCCNC(=O)NCCOCCOCCNS(=O)(=O)c2ccc(O[C@H]3c4cc(Cl)cc(Cl)c4C[C@@H]3N(C)C)c(F)c2)cc1F [Example 23, 3-[2-(2-[2-[(4-[[(1S,2S)-4,6-Dichloro-2-(dimethylamino)-2,3-dihydro-1H-inden-1-yl]oxy]-3-fluorobenzene)sulfonamido]ethoxy]ethoxy)ethyl]-1-[4-([[2-(2-[2-[(4-[[(1S,2S)-4,6-dichloro-2-(dimethylamino)-2,3-dihydro-1H-inden-1-yl]oxy]-3-fluorobenzene)sulfonamido]ethoxy]ethoxy)ethyl]carbamoyl]amino)butyl]urea; bis(trifluoroacetic acid)] | B (5-10) | – | – | 150 to 200 | 50 to 70 |
| Cc1cc(S(=O)(=O)NCCOCCOCCNC(=O)NCCCCNC(=O)NCCOCCOCCNS(=O)(=O)c2ccc(O[C@H]3c4cc(Cl)cc(Cl)c4C[C@@H]3N3CCC[C@@H](N(C)C)C3)c(C)c2)ccc1O[C@H]1c2cc(Cl)cc(Cl)c2C[C@@H]1N1CCC[C@@H](N(C)C)C1 [Example 26, 3-[2-(2-[2-[(4-[[(1S,2S)-4,6-Dichloro-2-[(3R)-3-(dimethylamino)piperidin-1-yl]-2,3-dihydro-1H-inden-1-yl]oxy]-3-methylbenzene)sulfonamido]ethoxy]ethoxy)ethyl]-1-[4-([[2-(2-[2-[4-[[(1S,2S)-4,6-dichloro-2-[(3R)-3-(dimethylamino)piperidin-1-yl]-2,3-dihydro-1H-inden-1-yl]oxy]-3-methylbenzenesulfonamido]ethoxy]ethoxy)ethyl]carbamoyl]amino)butyl]urea; bis(trifluoroacetic acid)] | B (5-10) | – | – | 150 to 200 | 50 to 70 |
| Cc1cc(Cl)cc2c1C[C@H](N1CCC[C@@H](N(C)C)C1)[C@H]2Oc1ccc(S(=O)(=O)NCCOCCOCCNC(=O)NCCCCNC(=O)NCCOCCOCCNS(=O)(=O)c2ccc(O[C@H]3c4cc(Cl)cc(C)c4C[C@@H]3N3CCC[C@@H](N(C)C)C3)cc2)cc1 [Example 28, 3-[2-(2-[2-[(4-[[(1S,2S)-6-Chloro-2-[(3R)-3-(dimethylamino)piperidin-1-yl]-4-methyl-2,3-dihydro-1H-inden-1-yl]oxy]benzene)sulfonamido]ethoxy]ethoxy)ethyl]-1-[4-([[2-(2-[2-[(4-[[(1S,2S)-6-chloro-2-[(3R)-3-(dimethylamino)piperidin-1-yl]-4-methyl-2,3-dihydro-1H-inden-1-yl]oxy]benzene)sulfonamido]ethoxy]ethoxy)ethyl]carbamoyl]amino)butyl]urea; bis(trifluoroacetic acid)] | B (5-10) | – | – | 150 to 200 | > 70 |
| Cc1cc(S(=O)(=O)NCCOCCOCCNC(=O)NCCCCNC(=O)NCCOCCOCCNS(=O)(=O)c2ccc(O[C@H]3c4cc(Cl)cc(C)c4C[C@@H]3N3CCC[C@@H](N(C)C)C3)c(C)c2)ccc1O[C@H]1c2cc(Cl)cc(C)c2C[C@@H]1N1CCC[C@@H](N(C)C)C1 [Example 29] | A (<5) | – | – | 150 to 200 | 50 to 70 |
| Cc1cc(Cl)cc2c1C[C@H](N1CCNCC1)[C@H]2Oc1ccc(S(=O)(=O)NCCOCCOCCNC(=O)NCCCCNC(=O)NCCOCCOCCNS(=O)(=O)c2ccc(O[C@H]3c4cc(Cl)cc(C)c4C[C@@H]3N3CCNCC3)cc2)cc1 [Example 34, 3-[2-(2-[2-[(4-[[(1S,2S)-6-Chloro-4-methyl-2-(piperazin-1-yl)-2,3-dihydro-1H-inden-1-yl]oxy]benzene)sulfonamido]ethoxy]ethoxy)ethyl]-1-[4-([[2-(2-[2-[(4-[[(1S,2S)-6-chloro-4-methyl-2-(piperazin-1-yl)-2,3-dihydro-1H-inden-1-yl]oxy]benzene)sulfonamido]ethoxy]ethyl)ethyl]carbamoyl]amino)butyl]urea; bis(trifluoroacetic acid)] | B (5-10) | – | – | 150 to 200 | 50 to 70 |
| Cc1cc(S(=O)(=O)NCCOCCOCCNC(=O)NCCCCNC(=O)NCCOCCOCCNS(=O)(=O)c2ccc(O[C@H]3c4cc(Cl)cc(C)c4C[C@@H]3N3CCNCC3)c(C)c2)ccc1O[C@H]1c2cc(Cl)cc(C)c2C[C@@H]1N1CCNCC1 [Example 35, 3-[2-(2-[2-[(4-[[(1S,2S)-6-Chloro-4-methyl-2-(piperazin-1-yl)-2,3-dihydro-1H-inden-1-yl]oxy]-3-methylbenzene)sulfonamido]ethoxy]ethoxy)ethyl]-1-[4-([[2-(2-[2-[(4-[[(1S,2S)-6-chloro-4-methyl-2-(piperazin-1-yl)-2,3-dihydro-1H-inden-1-yl]oxy]-3-methylbenzene)sulfonamido]ethoxy]ethoxy)ethyl]carbamoyl]amino)butyl]urea; bis(trifluoroacetic acid)] | A (<5) | – | – | 150 to 200 | > 70 |
| Cc1cc(Cl)cc2c1C[C@H](N1CCNCC1)[C@H]2Oc1ccc(S(=O)(=O)NCCOCCOCCNC(=O)NCCCCNC(=O)NCCOCCOCCNS(=O)(=O)c2ccc(O[C@H]3c4cc(Cl)cc(C)c4C[C@@H]3N3CCNCC3)c(F)c2)cc1F [Example 36, 3-[2-(2-[2-[(4-[[(1S,2S)-6-Chloro-4-methyl-2-(piperazin-1-yl)-2,3-dihydro-1H-inden-1-yl]oxy]-3-fluorobenzene)sulfonamido]ethoxy]ethoxy)ethyl]-1-[4-([[2-(2-[2-[(4-[[(1S,2S)-6-chloro-4-methyl-2-(piperazin-1-yl)-2,3-dihydro-1H-inden-1-yl]oxy]-3-fluorobenzene)sulfonamido]ethoxy]ethoxy)ethyl]carbamoyl]amino)butyl]urea; bis(trifluoroacetic acid)] | B (5-10) | – | – | 150 to 200 | 50 to 70 |
| Cc1cc(S(=O)(=O)N2CC[C@@H](COCCOCCNC(=O)NCCCCNC(=O)NCCOCCOC[C@@H]3CCN(S(=O)(=O)c4ccc(O[C@H]5c6cc(Cl)cc(Cl)c6C[C@@H]5N(C)C)c(C)c4)C3)C2)ccc1O[C@H]1c2cc(Cl)cc(Cl)c2C[C@@H]1N(C)C [Example 45, 3-[2-(2-[[(3R)-1-[(4-[[(1S,2S)-4,6-Dichloro-2-(dimethylamino)-2,3-dihydro-1H-inden-1-yl]oxy]-3-methylbenzene)sulfonyl]pyrrolidin-3-yl]methoxy]ethoxy)ethyl]-1-[4-([[2-(2[[(3R)-1-[(4-[[(1S,2S)-4,6-dichloro-2-(dimethylamino)-2,3-dihydro-1H-inden-1-yl]oxy]-3-methylbenzene)sulfonyl]pyrrolidin-3-yl]methoxy]ethoxy)ethyl]carbamoyl]amino)butyl]urea; bis(trifluoroacetic acid)] | A (<5) | – | – | < 150 | > 70 |

Source: patent US11242337B2, “Compounds useful for treating gastrointestinal tract disorders” (Ardelyx, Inc., priority 2017, dated 2022)
